The record followed here is ChEMBL document CHEMBL1667808, “Substituted imidazole derivatives as novel cardiovascular agents” (Bioorg Med Chem Lett, 2011).

Each structure is given as a SMILES string. The source made the active and inactive calls. The calls are words filed in the database; no cut-off is given here.

For assay [1], the system named is Felis catus. Briefly: Antihypertensive activity in cat assessed as change in blood pressure at 2.5 mg/kg measured after 5 mins. The class given is functional.
Assay [2] relates to Felis catus. Briefly: Hypotensive activity in cat assessed as decrease carotid occlusion response at 2.5 mg/kg. It counts as functional, organism-based. Set-up: dose 2.5 mg/kg.
In assay [3] the test system is Felis catus. Briefly: Antihypertensive activity in cat assessed as change in blood pressure at 2.5 mg/kg measured within 5 mins. The class given is functional.
The test system of assay [4] is Felis catus. Briefly: Hypotensive activity in cat assessed as decrease norepinephrine response at 2.5 mg/kg. It counts as functional, organism-based. Set-up: dose 2.5 mg/kg.
Assay [5] has as its system Felis catus. Briefly: Antihypertensive activity in cat assessed as change in heart rate at 2.5 mg/kg measured after 5 mins. It counts as functional.
Assay [6] relates to Felis catus. Briefly: Antihypertensive activity in cat assessed as change in heart rate at 2.5 mg/kg measured within 5 mins. It counts as functional.

For `COc1cc(-c2nc(-c3ccccc3)c(-c3ccccc3)n2CC(=O)NN)ccc1O`, the Activity in assay [1] is recorded as -20 mmHg; in assay [3] it was -30 mmHg. Further, the outcome in assay [2] was Active. For the same compound, the result in assay [4] and in assay [5] was inactive.

`COc1ccc(-c2nc(-c3ccccc3)c(-c3ccccc3)n2CC(=O)NN)cc1`: the Activity in assay [1] is given as -5 mmHg; in assay [3], -20 mmHg; in assay [6] it was -16 bpm; in assay [5], -21 bpm. Besides, the result in assay [2] and in assay [4] was inactive.

Turning to `COc1cc(/C=N/NC(=O)Cn2c(-c3ccc(N(C)C)cc3)nc(-c3ccccc3)c2-c2ccccc2)ccc1O`, the Activity in assay [1] is given as -55 mmHg; in assay [3], -80 mmHg; in assay [6], -14 bpm; in assay [5], -20 bpm. In assay [2], the outcome was Active. Also, in assay [4], the result was inactive.

Consider `COc1ccc(/C=N/NC(=O)Cn2c(-c3ccc(O)c(OC)c3)nc(-c3ccccc3)c2-c2ccccc2)cc1`, for which the outcome in assay [2] was Active. Moreover, the Activity in assay [3] is -10 mmHg. The outcome in assay [4] was inactive.

Take `NNC(=O)Cn1c(-c2ccccc2O)nc(-c2ccccc2)c1-c1ccccc1`: the Activity is reported as -17 mmHg in assay [1], -22 mmHg in assay [3] and -21 bpm in assay [6]. Besides, the outcome in assay [2], in assay [4] and in assay [5] was inactive.

Take `COc1ccc(-c2nnc(Cn3c(-c4ccc(O)c(OC)c4)nc(-c4ccccc4)c3-c3ccccc3)o2)cc1`: the Activity in assay [1] and in assay [3] was -10 mmHg each time. In assay [2], the result was Active. In assay [4], the outcome was inactive.

For the compound `COc1ccc(-c2nnc(Cn3c(-c4ccccc4)nc(-c4ccccc4)c3-c3ccccc3)o2)cc1`, the Activity in assay [1] is given as -10 mmHg; in assay [3], -50 mmHg. In addition, the result in assay [2] was Active. Also, the outcome in assay [4] was inactive.

As to `COc1ccc(/C=N/NC(=O)Cn2c(-c3ccc(N(C)C)cc3)nc(-c3ccccc3)c2-c2ccccc2)cc1`, the Activity was -50 mmHg in assay [1], -45 mmHg in assay [3], -12 bpm in assay [6] and -14 bpm in assay [5]. In assay [2], the outcome was Active. Moreover, the outcome in assay [4] was inactive.

On to `COc1ccc(/C=N/NC(=O)Cn2c(-c3ccccc3)nc(-c3ccccc3)c2-c2ccccc2)cc1`, for which the result in assay [2] and in assay [4] was inactive. Moreover, the Activity is -15 mmHg in assay [3], -8 bpm in assay [6] and -11 bpm in assay [5].

Consider `COc1ccc(/C=N/NC(=O)Cn2c(-c3ccc(OC)cc3)nc(-c3ccccc3)c2-c2ccccc2)cc1`, for which the Activity in assay [1] and in assay [3] was -5 mmHg throughout. The outcome in assay [2] was Active. Also, in assay [4], the outcome was inactive.

For `CN(C)c1ccc(-c2nnc(Cn3c(-c4ccccc4O)nc(-c4ccccc4)c3-c3ccccc3)o2)cc1`, the Activity in assay [1] is given as 5 mmHg; in assay [3] it was -15 mmHg; in assay [6], -5 bpm; in assay [5], -5 bpm. The result in assay [2] and in assay [4] was inactive.

Take `COc1ccc(-c2nnc(Cn3c(-c4ccc(OC)cc4)nc(-c4ccccc4)c3-c3ccccc3)o2)cc1`: the Activity in assay [1] is 10 mmHg; in assay [3], -10 mmHg. Besides, the result in assay [2] and in assay [4] was Active.

In the case of `COc1ccc(-c2nnc(Cn3c(-c4ccc(N(C)C)cc4)nc(-c4ccccc4)c3-c3ccccc3)o2)cc1`, the Activity in assay [1] is -10 mmHg; in assay [3] it was -15 mmHg; in assay [6], -6 bpm; in assay [5], -10 bpm. Besides, the result in assay [2] and in assay [4] was Active.

For `CN(C)c1ccc(/C=N/NC(=O)Cn2c(-c3ccccc3O)nc(-c3ccccc3)c2-c2ccccc2)cc1`, the Activity in assay [1] was -35 mmHg; in assay [3], -60 mmHg; in assay [6], -8 bpm; in assay [5], -11 bpm. Further, the result in assay [2] was Active. Further, in assay [4], the result was inactive.

For `COc1cc(-c2nnc(Cn3c(-c4ccc(N(C)C)cc4)nc(-c4ccccc4)c3-c3ccccc3)o2)ccc1O`, the Activity in assay [1] is recorded as -20 mmHg; in assay [3], -50 mmHg; in assay [6], -6 bpm; in assay [5], -14 bpm. Moreover, the result in assay [2] was Active. For the same compound, the result in assay [4] was inactive.

For the compound `NNC(=O)Cn1c(-c2ccccc2)nc(-c2ccccc2)c1-c1ccccc1`, the Activity in assay [1] is -15 mmHg; in assay [3] it was -25 mmHg; in assay [6] it was -6 bpm; in assay [5], -6 bpm. In addition, the outcome in assay [2] and in assay [4] was inactive.

For `CN(C)c1ccc(-c2nc(-c3ccccc3)c(-c3ccccc3)n2CC(=O)NN)cc1`, the Activity is listed as -30 mmHg in assay [1], -30 mmHg in assay [3], -18 bpm in assay [6] and -27 bpm in assay [5]. Moreover, the outcome in assay [2] was Active. In addition, the outcome in assay [4] was inactive.
